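1) Cells in 96-well plates. 2) Compound, 48 h, 5 concentrations. 3) Linear interpolation between surrounding doses. 4) Unreached endpoint = highest concentration. GI50: concentration for 50% inhibition of growth. TGI: total growth inhibition.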
Columns and labels:
Experiment in all cases: NCI anticancer screen, dose series, 48 h
OVCAR-3 ovarian = tested on: OVCAR-3 ovarian
UACC-62 melanoma = tested on: UACC-62 melanoma
SNB-19 CNS = tested on: SNB-19 CNS
HT29 colon = tested on: HT29 colon
SNB-75 CNS = tested on: SNB-75 CNS
SF-268 CNS = tested on: SF-268 CNS
RXF 393 renal = tested on: RXF 393 renal
BT-549 breast = tested on: BT-549 breast
OVCAR-4 ovarian = tested on: OVCAR-4 ovarian
SN12C renal = tested on: SN12C renal
M14 melanoma = tested on: M14 melanoma
HCC-2998 colon = tested on: HCC-2998 colon
KM12 colon = tested on: KM12 colon
NCI/ADR-RES ovarian = tested on: NCI/ADR-RES ovarian
OVCAR-8 ovarian = tested on: OVCAR-8 ovarian
SF-295 CNS = tested on: SF-295 CNS
IGROV1 ovarian = tested on: IGROV1 ovarian
U251 CNS = tested on: U251 CNS
786-0 renal = tested on: 786-0 renal
MDA-MB-435 = tested on: MDA-MB-435
A549 NSCLC = tested on: A549 NSCLC
CCRF-CEM leukemia = tested on: CCRF-CEM leukemia
TK-10 renal = tested on: TK-10 renal
HOP-62 NSCLC = tested on: HOP-62 NSCLC
DU-145 prostate = tested on: DU-145 prostate
MALME-3M melanoma = tested on: MALME-3M melanoma
T-47D breast = tested on: T-47D breast
SK-MEL-5 melanoma = tested on: SK-MEL-5 melanoma
SW-620 colon = tested on: SW-620 colon
OVCAR-5 ovarian = tested on: OVCAR-5 ovarian
MOLT-4 leukemia = tested on: MOLT-4 leukemia
UACC-257 melanoma = tested on: UACC-257 melanoma
SF-539 CNS = tested on: SF-539 CNS
SR leukemia = tested on: SR leukemia
HL-60(TB) leukemia = tested on: HL-60(TB) leukemia
NCI-H522 lung = tested on: NCI-H522 lung
UO-31 renal = tested on: UO-31 renal
HOP-92 NSCLC = tested on: HOP-92 NSCLC
HCT-15 colon = tested on: HCT-15 colon
SK-MEL-2 melanoma = tested on: SK-MEL-2 melanoma
RPMI-8226 leukemia = tested on: RPMI-8226 leukemia
EKVX NSCLC = tested on: EKVX NSCLC
NCI-H226 lung = tested on: NCI-H226 lung
K-562 leukemia = tested on: K-562 leukemia
SK-OV-3 ovarian = tested on: SK-OV-3 ovarian
MDA-MB-231 breast = tested on: MDA-MB-231 breast
HCT-116 colon = tested on: HCT-116 colon
SK-MEL-28 melanoma = tested on: SK-MEL-28 melanoma
NCI-H23 lung = tested on: NCI-H23 lung
A498 renal = tested on: A498 renal
HS 578T breast = tested on: HS 578T breast
NCI-H460 lung = tested on: NCI-H460 lung
MCF7 breast = tested on: MCF7 breast
PC-3 prostate = tested on: PC-3 prostate
LOX IMVI melanoma = tested on: LOX IMVI melanoma

SMILES: C[C@@]1(c2ncncc2F)NC(=O)c2cc(-c3cn[nH]c3)ccc21
- GI50 (OVCAR-3 ovarian): 21.9 µM
- TGI (OVCAR-3 ovarian): > 100 µM
- GI50 (UACC-62 melanoma): 18.8 µM
- TGI (UACC-62 melanoma): 70.6 µM
- GI50 (SNB-19 CNS): 31.9 µM
- TGI (SNB-19 CNS): > 100 µM
- GI50 (HT29 colon): 7.46 µM
- TGI (HT29 colon): 90.9 µM
- GI50 (SNB-75 CNS): 4.45 µM
- TGI (SNB-75 CNS): 40.3 µM
- GI50 (SF-268 CNS): 28.4 µM
- TGI (SF-268 CNS): > 100 µM
- GI50 (RXF 393 renal): 15.2 µM
- TGI (RXF 393 renal): 37.3 µM
- GI50 (BT-549 breast): 11.8 µM
- TGI (BT-549 breast): 49.3 µM
- GI50 (OVCAR-4 ovarian): 38.5 µM
- TGI (OVCAR-4 ovarian): > 100 µM
- GI50 (SN12C renal): 26.5 µM
- TGI (SN12C renal): > 100 µM
- GI50 (M14 melanoma): 15.2 µM
- TGI (M14 melanoma): 77.7 µM
- GI50 (HCC-2998 colon): 22.9 µM
- TGI (HCC-2998 colon): > 100 µM
- GI50 (KM12 colon): 29.6 µM
- TGI (KM12 colon): > 100 µM
- GI50 (NCI/ADR-RES ovarian): 37.9 µM
- TGI (NCI/ADR-RES ovarian): > 100 µM
- GI50 (OVCAR-8 ovarian): 26.9 µM
- TGI (OVCAR-8 ovarian): > 100 µM
- GI50 (SF-295 CNS): 29.4 µM
- TGI (SF-295 CNS): > 100 µM
- GI50 (IGROV1 ovarian): 21.4 µM
- TGI (IGROV1 ovarian): > 100 µM
- GI50 (U251 CNS): 29.4 µM
- TGI (U251 CNS): > 100 µM
- GI50 (786-0 renal): 23.6 µM
- TGI (786-0 renal): 91.1 µM
- GI50 (MDA-MB-435): 19.9 µM
- TGI (MDA-MB-435): > 100 µM
- GI50 (A549 NSCLC): 28.2 µM
- TGI (A549 NSCLC): > 100 µM
- GI50 (CCRF-CEM leukemia): 42.3 µM
- TGI (CCRF-CEM leukemia): > 100 µM
- GI50 (TK-10 renal): 10.9 µM
- TGI (TK-10 renal): 58.3 µM
- GI50 (HOP-62 NSCLC): 18.7 µM
- TGI (HOP-62 NSCLC): > 100 µM
- GI50 (DU-145 prostate): 28.8 µM
- TGI (DU-145 prostate): > 100 µM
- GI50 (MALME-3M melanoma): 12.9 µM
- TGI (MALME-3M melanoma): 68.4 µM
- GI50 (T-47D breast): 27.9 µM
- TGI (T-47D breast): > 100 µM
- GI50 (SK-MEL-5 melanoma): 20 µM
- TGI (SK-MEL-5 melanoma): > 100 µM
- GI50 (SW-620 colon): 6.79 µM
- TGI (SW-620 colon): > 100 µM
- GI50 (OVCAR-5 ovarian): 22.4 µM
- TGI (OVCAR-5 ovarian): 99 µM
- GI50 (MOLT-4 leukemia): 26.5 µM
- TGI (MOLT-4 leukemia): > 100 µM
- GI50 (UACC-257 melanoma): 30.3 µM
- TGI (UACC-257 melanoma): 98.7 µM
- GI50 (SF-539 CNS): 5.61 µM
- TGI (SF-539 CNS): 32.7 µM
- GI50 (SR leukemia): 15.6 µM
- TGI (SR leukemia): > 100 µM
- GI50 (HL-60(TB) leukemia): 15.8 µM
- TGI (HL-60(TB) leukemia): 60.4 µM
- GI50 (NCI-H522 lung): 13.1 µM
- TGI (NCI-H522 lung): > 100 µM
- GI50 (UO-31 renal): 17.2 µM
- TGI (UO-31 renal): 72.8 µM
- GI50 (HOP-92 NSCLC): 22.6 µM
- TGI (HOP-92 NSCLC): 88.5 µM
- GI50 (HCT-15 colon): 20.8 µM
- TGI (HCT-15 colon): > 100 µM
- GI50 (SK-MEL-2 melanoma): 23.8 µM
- TGI (SK-MEL-2 melanoma): 68.2 µM
- GI50 (RPMI-8226 leukemia): 31 µM
- TGI (RPMI-8226 leukemia): 95.2 µM
- GI50 (EKVX NSCLC): 22.1 µM
- TGI (EKVX NSCLC): > 100 µM
- GI50 (NCI-H226 lung): 20.1 µM
- TGI (NCI-H226 lung): > 100 µM
- GI50 (K-562 leukemia): 46.8 µM
- TGI (K-562 leukemia): > 100 µM
- GI50 (SK-OV-3 ovarian): 18.5 µM
- TGI (SK-OV-3 ovarian): 76 µM
- GI50 (MDA-MB-231 breast): 27.6 µM
- TGI (MDA-MB-231 breast): 89.5 µM
- GI50 (HCT-116 colon): 5.48 µM
- TGI (HCT-116 colon): > 100 µM
- GI50 (SK-MEL-28 melanoma): 11.7 µM
- TGI (SK-MEL-28 melanoma): 73.4 µM
- GI50 (NCI-H23 lung): 18.7 µM
- TGI (NCI-H23 lung): > 100 µM
- GI50 (A498 renal): 14.4 µM
- TGI (A498 renal): 50.5 µM
- GI50 (HS 578T breast): 23 µM
- TGI (HS 578T breast): > 100 µM
- GI50 (NCI-H460 lung): 25 µM
- TGI (NCI-H460 lung): > 100 µM
- GI50 (MCF7 breast): 21 µM
- TGI (MCF7 breast): > 100 µM
- GI50 (PC-3 prostate): 27.2 µM
- TGI (PC-3 prostate): > 100 µM
- GI50 (LOX IMVI melanoma): 8.23 µM
- TGI (LOX IMVI melanoma): > 100 µM

From PubChem BioAssay (NCI)
